Where two headings read alike, the source gives them in different places.
What was measured:
[1] = Solubility by nephelometry (EURL ECVAM); type: physicochemical; details: ECVAM nephelometry, ^2 = solubility limit
From the text: In addition to the visual inspection performed by the validation laboratories as described in the SOP, EURL ECVAM introduced nephelometry for systematic solubility determination of the 13 validation set chemicals. Nephelometry uses a laser beam and the principle of Tyndall effect light scatter to detect turbidity due to insolubility. The nephelometer method used formazin as reference item (1, 5, 10 and 20 nephelometric turbidity units (NTU)) to calculate the relative turbidity (RTU) of the validation set of chemicals. To the naked eye, 20 NTU is perceptible, while the nephelometer was sensitive to 5 NTU, with 1 NTU equivalent to background (solvent/medium blank).

[2] = Solubility by visual inspection (DMSO stock solution and assay medium); type: physicochemical; details: assay medium
Experimental: The SOPs relied on visual inspection for solubility observation. […] The absence of precipitation in the medium was checked pre- and post-incubation (24 hours) by centrifugation of the sample and observation of any precipitation (pellet residue).

[3] = cited from earlier work
[4] = test system: CYP3A4; assay: CYP3A4 enzyme induction assay in cryopreserved primary human hepatocytes (PHH); details: for Assigned classification CYP3A4: PHH
[5] = test system: CYP2B6; assay: CYP2B6 enzyme induction assay in cryopreserved primary human hepatocytes (PHH); type: in vitro ADME; details: PHH;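 note: code 1 means positive inducer and 0 means non-inducer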
[6] = test system: CYP3A4; assay: CYP3A4 enzyme induction assay in cryopreserved HepaRG cells (midazolam probe, LC/MS); type: in vitro ADME, human; details: for Assigned classification CYP3A4: HepaRG; for Assigned classification CYP3A4: key: 1=Positive=inducer; 0=Negative=non-inducer
[7] = test system: CYP1A2; details: CYP1A2, human; ref Table 1; cited from earlier work
[8] = test system: CYP1A2; assay: CYP1A2 enzyme induction assay in cryopreserved HepaRG cells (phenacetin probe, LC/MS); type: in vitro ADME, human; details: for Assigned classification CYP1A2: HepaRG; for Assigned classification CYP1A2: key: 1=Positive=inducer; 0=Negative=non-inducer
[9] = test system: CYP3A4; details: CYP3A4, human in vivo reference classification (Table 11); cited from earlier work
[10] = test system: CYP1A2; assay: CYP1A2 enzyme induction assay in cryopreserved primary human hepatocytes (PHH); type: in vitro ADME; details: for Assigned classification CYP1A2: PHH;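 for Assigned classification CYP1A2: code 1 means positive inducer and 0 means non-inducer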
[11] = test system: CYP2B6; assay: CYP2B6 enzyme induction assay in cryopreserved HepaRG cells (bupropion probe, LC/MS); type: in vitro ADME, human; details: HepaRG; note: key: 1=Positive=inducer; 0=Negative=non-inducer
[12] = human in vivo plasma concentration, normal dose
[13] = human in vivo, normal dose (Table 10)

CC1(C)S[C@@H]2[C@H](NC(=O)Cc3ccccc3)C(=O)N2[C@H]1C(=O)O [Penicillin G sodium]
HepaRG medium stability ([1]; HepaRG medium): 40 µg/mL | PHH medium stability ([1]; PHH medium): 40 µg/mL | HepaRG medium stability ([2]; Lab 1, visual observation): 40 µg/mL | HepaRG medium stability ([2]; Lab 2, visual observation): 40 µg/mL | HepaRG medium stability ([2]; Lab 3, visual observation): 40 µg/mL | PHH medium stability ([2]; Lab 4, visual observation): 40 µg/mL | PHH medium stability ([2]; Lab 5, visual observation): 40 µg/mL | PHH medium stability ([2]; Lab 6, visual observation): 20 µg/mL | Cmax [3, 12]: 36000 nM | Cmax [3, 13]: 36000 nM

COCCc1ccc(OCC(O)CNC(C)C)cc1 (stereo not shown) [Metoprolol]
Induction in vitro ([4]; CYP3A4, PHH): No | Prediction in vivo inducer ([4]; CYP3A4, PHH): No | Prediction in vivo inducer ([4]; CYP3A4, PHH, Cmax/F2 >0.5 criterion): predicted to be a non-inducer in vivo | Assigned classification CYP3A4 ([4]; Lab 1, batch 0 6 A): 0 | Assigned classification CYP3A4 ([4]; Lab 1, batch 4 0 8): 0 | Assigned classification CYP3A4 ([4]; Lab 1, batch 8 0 8): 0 | Assigned classification CYP3A4 ([4]; Lab 2, batch 0 6 A): 1 | Assigned classification CYP3A4 ([4]; Lab 2, batch 4 0 8): 0 | Assigned classification CYP3A4 ([4]; Lab 2, batch 8 0 8): 0 | Assigned classification CYP3A4 ([4]; Lab 3, batch 0 6 A): 1 | Assigned classification CYP3A4 ([4]; Lab 3, batch 4 0 8): 0 | Assigned classification CYP3A4 ([4]; Lab 3, batch 8 0 8): 0 | Assigned classification CYP2B6 ([5]; Lab 1, batch 0 6 A): 0 | Assigned classification CYP2B6 ([5]; Lab 1, batch 4 0 8): 0 | Assigned classification CYP2B6 ([5]; Lab 1, batch 8 0 8): 0 | Assigned classification CYP2B6 ([5]; Lab 2, batch 0 6 A): 0 | Assigned classification CYP2B6 ([5]; Lab 2, batch 4 0 8): 0 | Assigned classification CYP2B6 ([5]; Lab 2, batch 8 0 8): 0 | Assigned classification CYP2B6 ([5]; Lab 3, batch 0 6 A): 1 | Assigned classification CYP2B6 ([5]; Lab 3, batch 4 0 8): 0 | Assigned classification CYP2B6 ([5]; Lab 3, batch 8 0 8): 0 | Induction in vitro ([6]; CYP3A4, HepaRG cells): No | Prediction in vivo inducer ([6]; CYP3A4, HepaRG cells): No | Assigned classification CYP3A4 ([6]; Lab 1, batch 20): 0 | Assigned classification CYP3A4 ([6]; Lab 1, batch 35): 0 | Assigned classification CYP3A4 ([6]; Lab 1, batch 36): 0 | Assigned classification CYP3A4 ([6]; Lab 2, batch 20): 0 | Assigned classification CYP3A4 ([6]; Lab 2, batch 35): 0 | Assigned classification CYP3A4 ([6]; Lab 2, batch 36): 0 | Assigned classification CYP3A4 ([6]; Lab 3, batch 20): 0 | Assigned classification CYP3A4 ([6]; Lab 3, batch 35): 0 | Assigned classification CYP3A4 ([6]; Lab 3, batch 36): 0 | Induction in vivo [7]: No | Cmax [3, 12]: 140 to 380 nM | Cmax [3, 13]: 140 to 380 nM | Prediction in vivo inducer ([8]; CYP1A2, HepaRG cells, Cmax/F2 >0.5 criterion): No | Induction in vitro ([8]; CYP1A2, HepaRG cells, positive in one batch in each of the three laboratories): No | Assigned classification CYP1A2 ([8]; Lab 1, batch 20): 0 | Assigned classification CYP1A2 ([8]; Lab 1, batch 35): 0 | Assigned classification CYP1A2 ([8]; Lab 1, batch 36): 0 | Assigned classification CYP1A2 ([8]; Lab 2, batch 20): 0 | Assigned classification CYP1A2 ([8]; Lab 2, batch 35): 1 | Assigned classification CYP1A2 ([8]; Lab 2, batch 36): 0 | Assigned classification CYP1A2 ([8]; Lab 3, batch 20): 0 | Assigned classification CYP1A2 ([8]; Lab 3, batch 35): 0 | Assigned classification CYP1A2 ([8]; Lab 3, batch 36): 0 | Induction in vivo [9]: No | Prediction in vivo inducer ([10]; CYP1A2, PHH, Cmax/F2 >0.5 criterion): No | Induction in vitro ([10]; CYP1A2, PHH, positive in one donor in each of the three laboratories): No | Assigned classification CYP1A2 ([10]; Lab 1, batch 0 6 A): 0 | Assigned classification CYP1A2 ([10]; Lab 1, batch 4 0 8): 1 | Assigned classification CYP1A2 ([10]; Lab 1, batch 8 0 8): 1 | Assigned classification CYP1A2 ([10]; Lab 2, batch 0 6 A): 0 | Assigned classification CYP1A2 ([10]; Lab 2, batch 4 0 8): 0 | Assigned classification CYP1A2 ([10]; Lab 2, batch 8 0 8): 0 | Assigned classification CYP1A2 ([10]; Lab 3, batch 0 6 A): 1 | Assigned classification CYP1A2 ([10]; Lab 3, batch 4 0 8): 0 | Assigned classification CYP1A2 ([10]; Lab 3, batch 8 0 8): 0 | Assigned classification CYP2B6 ([11]; Lab 1, batch 20): 0 | Assigned classification CYP2B6 ([11]; Lab 1, batch 35): 0 | Assigned classification CYP2B6 ([11]; Lab 1, batch 36): 0 | Assigned classification CYP2B6 ([11]; Lab 2, batch 20): 0 | Assigned classification CYP2B6 ([11]; Lab 2, batch 35): 0 | Assigned classification CYP2B6 ([11]; Lab 2, batch 36): 0 | Assigned classification CYP2B6 ([11]; Lab 3, batch 20): 0 | Assigned classification CYP2B6 ([11]; Lab 3, batch 35): 0 | Assigned classification CYP2B6 ([11]; Lab 3, batch 36): 0

C[C@@H]1CC[C@H]2[C@@H](C)C(=O)O[C@@H]3O[C@@]4(C)CC[C@@H]1[C@]32OO4 [Artemisinin]
Cmax [3, 12]: 1000 to 2000 nM | Cmax [3, 13]: 1000 to 2000 nM

— PMC6718736, “Validation of in vitro methods for human cytochrome P450 enzyme induction: Outcome of a multi-laboratory study” (Toxicology in Vitro, 2019)
